The results in this text go back to patent US20220000818A1, “COMPOSITIONS FOR USE IN PREVENTING ACNE” (Nogra Pharma Limited, priority 2019, published 2022).

Format in all cases: cell-based, human
Data set [1] relates to pAkt and pS6 (PI3K/Akt pathway) in SZ95 sebocytes. In words: Western blot of insulin-induced pAkt and pS6 in SZ95 sebocytes. To be noted: SZ95-SF cells, 0.1 μM insulin and 1 mM NAC-GED0507, 24 hours. On the procedure: (§1) Immortalized human SZ95 sebocytes (Zouboulis et al., 1999), showing morphologic, phenotypic, and functional characteristics of normal human sebocytes, were cultured in 5% CO2 at 37° C. in Sebomed basal medium, 1% L-glutamine, 1% penicillin/streptomycin, 5 ng/mL recombinant human epidermal growth factor, and 1 mM CaCl2, with or without 10% FBS supplement. All experiments were performed at least in triplicate.
(§2) For protein extraction, cells were lysed in RIPA buffer (50 mM Tris-HCl pH 7.4, 1% Nonidet P40, 0.25% deoxycholate, 150 mM NaCl, 1 mM EDTA, 1 mM PMSF, 1 mM Na3VO4, 5 mM NaF), supplemented with a protease inhibitor cocktail (Roche, Mannheim, Germany), for 30 minutes at 4° C., then sonicated. Total cell lysates were clarified by centrifugation at 12,000 rpm for 10 minutes at 4° C. and then stored at −80° C. until analysis.
(§3) Protein levels were measured by spectrophotometry, and protein (50 μg) was loaded and resolved using an acrylamide SDS-PAGE gel, and finally transferred onto a nitrocellulose membrane (Amersham Biosciences, Milan, Italy). Protein transfer efficiency was evaluated by Ponceau S staining (Sigma-Aldrich). […] Protein levels were quantified by measuring optical density of specific bands using a UVI-TEC System (Eppendorf, Hamburg, Germany). […]
(In general: In western blotting, separated proteins are transferred to a membrane and probed.)

The test system of data set [2] is SZ95 sebocytes. In words: Metabolic activity and cell viability of SZ95 sebocytes. As to conditions: SZ95-S or SZ95-SF sebocytes exposed to NAC-GED0507. How it is done: as §1
SZ95-SF and SZ95-S sebocytes were cultured for an additional 24 hours in the presence of 0.1 μM insulin and/or 1 mM of the PPARγ modulator N-acetyl-(S)-3-(4′-aminophenyl)-2-methoxypropionic acid (“NAC-GED0507”).

Data set [3] relates to SREBP-1, FAS, FADS-2, SCD-1, DGAT1 mRNA in SZ95 sebocytes. In words: Real-time RT-PCR of lipidogenic gene mRNA in SZ95 sebocytes. On the procedure: as §1
Total RNA was isolated using the Aurum™ Total RNA Mini kit (Bio-Rad Laboratories Srl; Milan, Italy). Total RNA quantity, purity, and the absence of ribonuclease activity were assessed by OD260/280 absorbance measurements and by agarose gel electrophoresis. Total RNA samples were stored at −80° C. until use. Following DNAse I treatment, cDNA was synthesized using a mix of oligo-dT and random primers and RevertAid™ First Strand cDNA synthesis kit (Thermo Fisher Scientific; Monza, Italy). Quantitative real time RT-PCR was performed in a total volume of 15 μL with SYBR Green PCR Master Mix (Bio-Rad Laboratories Srl) and 200 nM concentration of each primer.
Reactions were carried out in triplicate using an iQ™ 5 iCycler supplied with the iQ™ 5 Real-Time Detection System (Bio-Rad Laboratories; Hercules, Calif., USA). Melt curve analysis was performed to confirm the specificity of the amplified products. Expression of mRNA species was normalized to the expression of GAPDH mRNA by the change in the Δ cycle threshold (ΔCt) method and calculated based on 2^−Δct.
SZ95-S and SZ95-SF sebocytes were cultured for an additional 24 hours in the presence of 0.1 μM insulin and/or 1 mM NAC-GED0507.
Background: Quantitative PCR measures a nucleic acid by following its amplification.

For data set [4], the system named is SZ95 sebocytes. In words: GC-MS analysis of fatty acid production (lipogenesis) in SZ95 sebocytes. As to conditions: insulin and NAC-GED0507, 48 hours or 72 hours. How it is done:
as §1
Lipids were extracted from SZ95 sebocytes using a modified version of the protocol described in Bligh E G and Dyer W J, J Biochem Physiol, 1959. Lipids were extracted with chloroform: methanol (2:1) solution (2×1 mL) after the addition of butylhydroxytoluene to prevent oxidation of oxygen sensitive compounds. 5 μg of methylated tricosanoic acid was added as internal standard to control the analytical performance and to calculate the relative abundance of the fatty acids detected. Organic layers were collected and evaporated under nitrogen. Dried lipid extract was dissolved in 100 μL acetone/methanol/isopropanol (40:40:20) solution and 20 μL were used for the analysis of bound fatty acids (FA).
Bound fatty acids (FA) were analyzed as FA methyl esters (FAME) obtained after derivatization. For simultaneous saponification and methylation of bound FA, 250 μL KOH solution (0.5 M) in anhydrous methanol was added to the dried extract and incubated at 37° C. for 20 minutes with constant shaking. 0.5 mL HCl (0.25 M) was added to neutralize the alkaline reaction mixture. After vortexing, 0.25 mL K2SO4 (6.7%) and 1 mL hexane:isopropanol (3:2 v/v) solution containing 0.0025% BHT were added and vortexed. After centrifugation, the lipid enriched upper phase was transferred to an Eppendorf tube and evaporated under nitrogen. The dried FAME extract was dissolved in 50 μL n-hexane and analyzed by GC-MS to establish FA profiles in the lipid extracts (Thermo-Finnigan, Waltham, Mass., USA). Chromatographic separation was carried out on a HP-FFAP capillary column (Agilent Technologies, Santa Clara, Calif., USA; crosslinked FFAP, length 50 m, film thickness 0.52 μm). Helium was used as the carrier gas. The initial GC oven temperature was 40° C. and was linearly ramped up to 240° C. at 8° C./min. The total run time was 60 min. The injector and the GC-MS transfer lines were kept at 230° C. and 250° C., respectively. Total ion chromatograms (TIC) were acquired, and areas of single peaks, corresponding to the FAME, were integrated with the qualitative analysis software. Identity of the detected FAME was verified by comparison with authentic standards and matched with library spectral data.
SZ95-SF and SZ95-S sebocytes were also cultured for 48 hours or 72 hours in the presence of insulin and NAC-GED0507.

Data set [5] has as its system lipoxygenase (LOX). The experiment in a line: Lipoxygenase activity assay in SZ95 sebocyte lysates. To be noted: SZ95-S and SZ95-SF cells, 0.1 μM insulin and NAC-GED0507. How it is done:
Immortalized human SZ95 sebocytes (Zouboulis et al., 1999), showing morphologic, phenotypic, and functional characteristics of normal human sebocytes, were cultured in 5% CO2 at 37° C. in Sebomed basal medium, 1% L-glutamine, 1% penicillin/streptomycin, 5 ng/mL recombinant human epidermal growth factor, and 1 mM CaCl2, with or without 10% FBS supplement. All experiments were performed at least in triplicate. Lipoxygenase (LOX) activity was evaluated spectrophotometrically by monitoring the conversion of the LOX substrate linoleic acid (LA) to the corresponding hydroperoxy fatty acid. SZ95 sebocytes were lysed in 50 mM Tris/HCl buffer (pH 7.4) (Merck; Darmstadt, Germany) by repeated freezing in liquid nitrogen and thawing. Protein content was determined by Bradford assay using bovine serum albumin as the protein standard. Aliquots of supernatants containing 50 μg of protein were added to Tris/HCl buffer containing 200 μM LA in a final volume of 1 mL. All reactions were performed in 1-cm path length quartz cuvettes. The absorbance at 234 nm was recorded at room temperature for 10 minutes using a Lambda 25 UV/Vis spectrophotometer (Perkin-Elmer, UK). SZ95 sebocytes cultured under serum and serum-free conditions were analyzed for LOX expression. SZ95-SF sebocytes expressed slightly higher basal levels of LOX compared to SZ95-S sebocytes (data not shown). […]

Data set [6] relates to SZ95 sebocytes. In words: LC-MS analysis of 5-HETE and 15-HETE in SZ95 cell media. As to conditions: SZ95-SF and SZ95-S sebocytes, insulin and NAC-GED0507. How it is done: as §1
Levels of the polyunsaturated fatty acids 5-hydroxyeicosatetraenoic acid (5-HETE) and 15-hydroxyeicosatetraenoic acid (15-HETE) in cell media were measured by HPLC\MS\MS. Chromatographic separation was carried out using an Agilent Technologies 1200 HPLC Liquid Chromatography System (Palo Alto, Calif., USA) with a Symmetry C18 column ([…], 100 mm×2.1 mm; Waters, Milford, Mass., USA) as previously reported (Furugen A et al., (2015) “Simultaneous quantification of leukotrienes and hydroxyeicosatrienoic acids in cell culture medium using liquid chromatography/tandem mass spectrometry” Biomed Chromatogr 29:1084-1093). […] For each compound to be quantified, an internal standard was selected and a linear curve was generated where the ratio of analyte standard peak area to internal standard peak area was plotted against the amount of analyte standard. The results were calculated as nM/106 cells and then reported as % variation vs control values. […]

Data set [7] relates to IL-6 release from SZ95 sebocytes. In words: IL-6 release ELISA in SZ95 sebocytes. To be noted: all sebocytes (SZ95-SF and SZ95-S), 0.1 μM insulin. On the procedure: as §1
SZ95 culture supernatants were collected and centrifuged to remove cell debris. Aliquots were then stored at −80° C. until use. IL-6 protein level was determined by ELISA (Life Technologies, Invitrogen; Milan, Italy), and normalized for cell number. In stratum corneum specimens, concentration of IL-1α was assessed by ELISA (Life Technologies, Invitrogen, Milan, Italy), and normalized against the total amount of soluble protein. Levels of IL-1α were reported as pg/pg protein. The results represent the average of three independent experiments performed in triplicate.
To determine the effect of insulin exposure on inflammatory cytokine release in sebocytes at different stages of differentiation, IL-6 release was measured by ELISA following exposure of SZ95-SF and SZ95-S sebocytes to 0.1 μM insulin.

The subject of data set [8] is PPARγ and EMA protein in SZ95-SF cells. The experiment in a line: Western blot of PPARγ and EMA (sebocyte differentiation) in SZ95-SF cells. As to conditions: 24 hours. On the procedure:
as §1, §2, §3

Where [9] appears, read: SZ95-SF cells, pre-treatment with NAC-GED0507.

With `CO[C@@H](Cc1ccc(NC(C)=O)cc1)C(=O)O` [NAC-GED0507, N-acetyl-(S)-3-(4′-aminophenyl)-2-methoxypropionic acid], in data set [1], the “insulin-induced pAkt” value is on record as “significant decrease” and the “insulin-induced pS6” value is “significant decrease”. Also, in data set [2], the cell viability entry is on record as “No significant changes” and the metabolic activity result is given as “No significant changes”. The “up-regulation of lipidogenic genes (SREBP-1, FAS, FADS-2, SCD-1 mRNA) observed with insulin alone” value in data set [3] (0.1 μM insulin and 1 mM NAC-GED0507, 24 hours) is listed as “significantly inhibited”. Also, the “DGAT1 mRNA levels (decreased by insulin)” value in data set [3] (SZ95-SF cells, 0.1 μM insulin) is on record as “countered the effects of insulin exposure”. In addition, in data set [3] (setting [9]), the “insulin-stimulated FADS2 mRNA expression” value was “reduced the effect”, the “insulin-stimulated SCD1 mRNA expression” value is “reduced the effect” and the “insulin-stimulated SREBP1 mRNA expression” value is reported as “reduced the effect”. Also, in data set [4] (SZ95-SF sebocytes), the “production of mono-unsaturated fatty acids in response to insulin” value is reported as “significantly inhibited”, the “production of poly-unsaturated fatty acids in response to insulin” value is on record as “significantly inhibited” and the “total fatty acid synthesis stimulated by insulin” value was “significantly inhibited”. For the same molecule, the “inhibition of unsaturated fatty acid production in SZ95-SF in comparison to SZ95-S sebocytes” value in data set [4] was “relatively more robust”. In data set [5], the “insulin-induced increase in LOX activity” value is “inhibited”. For the same molecule, in data set [6], the “increase in 5-HETE stimulated by insulin” value is listed as “countered the increase” and the “increase in 15-HETE stimulated by insulin” value was “countered the increase”. Also, the IL-6 cytokine release result in data set [7] is listed as “significantly reduced”. For the same molecule, in data set [8], the EMA protein expression result is “increase” and the PPARγ protein expression result was “increase”.
